According to patent US12661308B2, “Antimicrobial AZO compounds and uses thereof” (The Regents Of The University Of Colorado, A Body Corporate, priority 2019, dated 2026):
“Also recorded” adds a separate entry of the source.

What was measured:
Type in all cases: cell-based, Streptococcus mutans
[1] = tested on: S. mutans (ATCC 25175) biofilm; assay: Detachment study of S. mutans biofilm on monomer-coated polymeric substrates (Example 1)
Protocol: The polymeric substrates were prepared by mixing 54 wt % methyl methacrylate (MMA), 30 wt % polymethylmethacrylate (PMMA, MW ˜35 k), and 16 wt % tetraethylene glycol dimethacrylate (TEGDMA) at 70° C. for 2 hr. After mixing, 1 wt. % azobisisobutyronitrile (AIBN) was added to the formulation as an initiator and mixed.
The mixed formulation was added to circular molds (diameter=6.5 mm) cut from a strip of rubber (thickness=0.9 mm) and pressed between two glass microscope slides. The mold was clamped together and thermally cured at 80° C. for 1.5 hr.
The polymeric substrates were coated as follows. Coating solutions were prepared having the following monomer concentrations (see FIG. 3 for structures of the monomers): 0.5 mg/mL and 50 mg/mL solutions of a phenolic acrylated azobenzene monomer (OH-AAZO), 50 mg/mL acrylated azobenzene monomer (AAZO), 50 mg/mL 4-hydroxyl benzylacrylate (HBA), 50 mg/mL 2-hydroxylethyl methacrylate (HEMA).
The coating solutions included the monomer in N,N′-dimethylformamide (DMF) along with 0.5 mg/mL of AIBN and 0.1 mg/mL of Rhodamine B as an indicator dye. Once mixed, 3 μL of each coating solution was pipetted onto one side of the polymeric substrate and spun at 1000 RPM for 1 min followed by spinning at 6000 RPM for 3 s. The coating was cured under a nail lamp (Melody Susie UV Gel Nail Polish Dryer, Model DR-301C) for at least 15 min before repeating the coating procedure on the other side.
The controlled growth of biofilms varied depending on the bacteria strain. In the case of S. mutans, a BHI agar plate was streaked with S. mutans (ATCC 25175) and allowed to incubate at 37° C. in 5% CO2 for 60 hr to isolate a single bacterial colony. The colony was inoculated in 5 mL of BHI and allowed to incubate statically in the 5% CO2 incubator for 24 hr. The stock solution was diluted 1:50 in a 96-well plate containing the substrates of interest and allowed to incubate in the 5% CO2 incubator for an additional 24 hr.
The detachment study quantified the biofilm grown on each substrate via a series of washes in 1×PBS. The substrate was irradiated using a dental lamp (FlashMax P3 Ortho™, 1900 mW/cm2, wavelength=450-470 nm) on the underside of the vial for a total of ten 3 s irradiations per side. Following the series of washes, the substrate was sonicated for 10 min to remove the residual biofilm on the substrate. The wash solutions were serial diluted, plated, and grown at 37° C. and 5% CO2 to obtain the CFU count.
Images collected from a digital microscope (Zeiss Axioplan II microscope, 630×, step size 0.1 μm) after the substrate and bacteria were treated with BACLIGHT Live/Dead stain are included in FIG. 4.

[2] = tested on: S. mutans (ATCC 25175) biofilm; assay: S. mutans biofilm growth study by CFU count on coated and bulk substrates (Example 4)
Protocol: Coating formulations of OH-AAZO were prepared in THF, all others were prepared in DMF. The THF volume was kept constant (1 mL) and the mass of OH-AAZO monomer was varied to attain the desired concentration. In addition to the OH-AAZO monomer, the coating also consisted of AIBN (2 wt. % relative to the mass of the monomer), and Rhodamine B (0.2 wt. % relative to the mass of the monomer).
Once cured, the MMA:TEGDMA:PMMA base polymers were placed into a mount on a square glass microscope slide. 3 μL of the coating formulation was added via pipette to one side of the substrate and spin coated (1000 rpm for 1 min, 6000 rpm for 3 min), then the process was repeated on the other side. Once both sides were coated, they were placed in an oven for 3 h at 100° C., then under vacuum for an additional 0.5 h.
Bulk OH-AAZO formulations were prepared using the acrylic base polymer method with the addition of the appropriate weight percentage of OH-AAZO (relative to the total mass of the formulation) and AIBN (rather than camphorquinone/amine, 2 wt. %). The components were stirred at room temperature until completely dissolved. The formulations were pipetted into the rubber spacer and cured for 1 h at 100° C. Conversion rates were observed via FT-IR.
Following curing, residual monomer was aqueously extracted by autoclaving (20 psi, 128° C.) for 1 h in MilliQ water (approx. 5 mL water per substrate). The MilliQ water was replaced with fresh water (approx. 5 mL water per substrate) and placed in an 80° C. oven for 2 h. The substrates were blotted dry and analyzed via UV-Vis spectroscopy to confirm the relative amount of the coating (FIG. 9). All coated and bulk substrates were autoclaved prior to their use with both mammalian and bacterial cells.
S. mutans biofilms were grown from a 24 h BHI liquid culture inoculated with an isolated S. mutans colony. The liquid culture was diluted 1:50 in BHI media containing 1 wt. % sucrose in each well in a 96-well plate containing a substrate of interest. The plate was incubated in the dark at 37° C. and 5% CO2 for the necessary amount of time (t=24 h, 48 h, 72 h, depending on the experiment).
Following biofilm growth in the 96-well plate, the substrates were aseptically removed from the 96-well plate and placed in a vial containing 5 mL of 1× PBS solution. The vials were sonicated in a water bath for 10 min at 45° C., and the wells that previously contained the substrates were briefly sonicated using a probe sonicator (3 W RMS output) for 10 s per well. 200 μL aliquots of the sonicated PBS solution were placed in a 96-well plate and diluted 1:10 in each subsequent row. 20 μL aliquots of the sonicated media wells were placed in a 96-well plate containing 180 μL of PBS solution and diluted 1:10 in each subsequent row. Each column was then plated at a volume of 10 μL on a BHI agar plate in triplicate. The plates were then incubated at 37° C. and 5% CO2 for 48 h. The CFUs on each plate were counted in order to quantify the amount of biofilm remaining on the surface of the substrate and the bacteria remaining in the media after the removal of the substrate using the following equations: […]

S. mutans biofilm = assay: Live-dead stain microscopy of S. mutans biofilms (Example 4)
Protocol: Microscope images were obtained using a Zeiss digital microscope at 6300× magnification using the FITC and CY3 channels. Following biofilm growth, the substrates were placed in a solution of live-dead stains (Invitrogen BacLight™) containing 1.5 μL Component A (SYTO® 9, green fluorescent nucleic acid stain) and 1.5 μL Component B (propidium iodide, red fluorescent nucleic acid stain) in 200 μL of sterile water. The substrates were soaked for 3 min, then gently washed in sterile water for 10 s, dried, and fixed to a glass slide prior to imaging.

## C=CC(=O)Oc1ccccc1/N=N/c1ccccc1O [OH-AAZO, phenolic acrylated azobenzene]
[1]; 0.5 mg/mL coating solution, compared with 50 mg/mL coating
  antibacterial effect against S. mutans: did not result in the same antibacterial effect
[1]; 50 mg/mL coating, even prior to light/wash treatment
  S. mutans growth on the surface of the coated substrate: no growth at all
[1]; prior to wash/light treatment
  S. mutans biofilm on substrate, Live/Dead stain microscopy: comparatively very little biofilm
[2]; 5 mg/mL coating solution, 24 h
  CFUs of S. mutans biofilm on substrate: approximately 1.0×10^8 CFUs
  difference in CFUs between coated and uncoated substrates: no significant difference
[2]; 25 mg/mL coating solution, 24 h
  reduction in CFUs of S. mutans biofilm relative to the uncoated control: 4 log
[2]; 50 mg/mL coated substrates, over 72 h
  sterility of the substrate (sonication CFU): maintained sterility
[2]; 50 mg/mL coated substrates, t=48 h and 72 h
  bacterial growth in the media surrounding the substrate: Some media bacterial growth was observed
[2]; 50 mg/ml coated substrate, 24 h
  bacterial growth in the surrounding media: absent
[2]; 100 mg/mL coating solution, 24 h
  CFUs of S. mutans biofilm on substrate surface: no observable CFUs
[2]; 100 mg/ml coated substrate, 24 h
  bacterial growth in the surrounding media: absent
[2]; 1.5 wt. % OH-AAZO bulk bisGMA:TEGDMA substrate, 24 h
  CFUs of S. mutans on surface and in surrounding media: no observable CFUs; also recorded: maintained sterility
[2]; 2 wt. % OH-AAZO bulk bisGMA:TEGDMA substrate, 24 h
  CFUs of S. mutans on surface and in surrounding media: no observable CFUs; also recorded: maintained sterility
[2]; sucrose-dependent conditions
  prevention of growth of an S. mutans biofilm: shown to prevent the growth
S. mutans biofilm; 1.5% OH-AAZO bulk substrate, 24 h
  live and dead bacteria on substrate, live-dead stain: high amounts of dead bacteria (lighter) and little to no live bacteria; also recorded: did not grow
S. mutans biofilm; 2% OH-AAZO bulk substrate, 24 h
  live and dead bacteria on substrate, live-dead stain: high amounts of dead bacteria (lighter) and little to no live bacteria; also recorded: did not grow
S. mutans biofilm; coated substrate, 24 h biofilm growth, compared to uncoated control
  live and dead bacteria on substrate, live-dead stain: high amounts of dead bacteria (lighter) and little to no live bacteria
